Source: patent publication US12077503B2, “Substituted cyclic amides and their use as herbicides” (FMC CORPORATION, priority 2015, dated 2024)
Where two headings read alike, the source gives them in different places.

Columns and labels:
Assay type in all cases: in vivo
rice (Oryra sativa) = assay: Test B flooded paddy test; details: Oryza sativa, 250 g ai/ha, Flood; 0 to 100 scale where 0 is no effect and 100 is complete control; read-out: Rice plant response rating
In short: (§1)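 Compound goes directly into floodwater once pots are flooded 3 cm above soil, targeting plants at two leaves; the water depth is then held for the test duration. Plants sit 13–15 d in a greenhouse and are rated visually, 100 denoting complete control.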

[1] = tested on: barnyardgrass (Echinochloa crus-galli); assay: Test B flooded paddy test; details: Echinochloa crus-galli, 250 g ai/ha, Flood; 0 to 100 scale where 0 is no effect and 100 is complete control; read-out: Barnyardgrass plant response rating
In short: as §1

[2] = tested on: sedge, umbrella (small-flower umbrella sedge, Cyperus difformis); assay: Test B flooded paddy test; details: Cyperus difformis, 250 g ai/ha, Flood; 0 to 100 scale where 0 is no effect and 100 is complete control; read-out: Sedge, Umbrella plant response rating
In short: as §1

[3] = tested on: ducksalad (Heteranthera limosa); assay: Test B flooded paddy test; details: Heteranthera limosa, 250 g ai/ha, Flood; 0 to 100 scale where 0 is no effect and 100 is complete control; read-out: Ducksalad plant response rating
In short: as §1

[4] = tested on: pigweed (Amaranthus retroflexus); assay: Test A postemergence; details: Amaranthus retroflexus, post-emergence, 240 h, postemergence, approx. 10 d; for pest or weed control at 125 g/ha: 125 g ai/ha, visual injury on 0 to 100 scale (0 no effect, 100 complete control), read-out: Pigweed plant response rating
In short: (§2)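 Preemergence soil spray on seeded pots or post-emergence spray on 1–2 leaf plants, in loam–sand blend. Greenhouse ~10 d. Visual rating 0–100 against untreated plants.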

[5] = tested on: blackgrass (Alopecurus myosuroides); assay: Test A postemergence; details: Alopecurus myosuroides, post-emergence, 240 h; for pest or weed control at 125 g/ha: 125 g ai/ha; for pest or weed control at 500 g/ha: 500 g ai/ha, visual injury, 0 to 100 scale (0 no effect, 100 complete control)
In short: as §2

[6] = tested on: giant foxtail (Setaria faberii); assay: Test A postemergence; details: Setaria faberi, post-emergence, 240 h, postemergence, approx. 10 d; for pest or weed control at 125 g/ha: 125 g ai/ha, visual injury on 0 to 100 scale (0 no effect, 100 complete control), read-out: Foxtail, Giant plant response rating; for pest or weed control at 500 g/ha: 500 g ai/ha, visual injury, 0 to 100 scale (0 no effect, 100 complete control), read-out: Plant response rating, Foxtail, Giant
In short: as §2

[7] = tested on: ryegrass, Italian (Italian ryegrass, Lolium multiflorum); assay: Test A postemergence; details: Lolium multiflorum, post-emergence, 240 h, postemergence, approx. 10 d; for pest or weed control at 125 g/ha: 125 g ai/ha, visual injury on 0 to 100 scale (0 no effect, 100 complete control), read-out: Ryegrass, Italian plant response rating
In short: as §2

[8] = tested on: ragweed (common ragweed, Ambrosia elatior); assay: Test A postemergence; details: Ambrosia artemisiifolia, post-emergence, 240 h, postemergence, approx. 10 d; for pest or weed control at 125 g/ha: 125 g ai/ha, visual injury on 0 to 100 scale (0 no effect, 100 complete control), read-out: Ragweed plant response rating
In short: as §2

[9] = tested on: Galium (catchweed bedstraw, Galium aparine); assay: Test A postemergence; details: Galium, post-emergence, 240 h, postemergence, approx. 10 d; for pest or weed control at 125 g/ha: 125 g ai/ha, visual injury on 0 to 100 scale (0 no effect, 100 complete control), read-out: Galium plant response rating; for pest or weed control at 500 g/ha: 500 g ai/ha, visual injury, 0 to 100 scale (0 no effect, 100 complete control), read-out: Plant response rating, Galium
In short: as §2

[10] = tested on: barnyardgrass (Echinochloa crus-galli); assay: Test A postemergence; details: Echinochloa crus-galli, post-emergence, 240 h; for pest or weed control at 125 g/ha: 125 g ai/ha; for pest or weed control at 500 g/ha: 500 g ai/ha, visual injury, 0 to 100 scale (0 no effect, 100 complete control)
In short: as §2

[11] = tested on: wheat (Triticum aestivum); assay: Test A postemergence; details: Triticum aestivum, post-emergence, 240 h, postemergence, approx. 10 d; for plant injury at 125 g/ha: 125 g ai/ha, visual injury on 0 to 100 scale (0 no effect, 100 complete control), read-out: Wheat plant response rating
In short: as §2

corn (Zea mays) = assay: Test A postemergence; details: Zea mays, post-emergence, 240 h; for Corn plant response rating (crop injury, 0 = no effect, 100 = complete kill) at 500 g/ha: 500 g ai/ha, visual injury, 0 to 100 scale (0 no effect, 100 complete control)
In short: as §2

Kochia (Kochia scoparia) = assay: Test A postemergence; details: Bassia scoparia, post-emergence, 240 h, postemergence, approx. 10 d; for pest or weed control at 125 g/ha: 125 g ai/ha, visual injury on 0 to 100 scale (0 no effect, 100 complete control), read-out: Kochia plant response rating; for pest or weed control at 500 g/ha: 500 g ai/ha, visual injury, 0 to 100 scale (0 no effect, 100 complete control), read-out: Plant response rating, Kochia
In short: as §2

[12] = tested on: pigweed (Amaranthus retroflexus); assay: Test A preemergence; details: Amaranthus retroflexus, pre-emergence, 240 h; for pest or weed control at 125 g/ha: 125 g ai/ha, Preemergence, visual injury rating after approximately 10 d, read-out: Pigweed plant response rating (0 to 100 scale, 0 is no effect, 100 is complete control); for pest or weed control at 500 g/ha: 500 g ai/ha, preemergence, visual injury rating about 10 d after treatment, 0 to 100 scale (0 no effect, 100 complete control), read-out: Pigweed plant response rating
[13] = postemergence, approx. 10 d, read-out: Plant response rating, Blackgrass
[14] = postemergence, approx. 10 d, read-out: Plant response rating, Barnyardgrass

| SMILES | pest or weed control at 250 g/ha (rice (Oryra sativa)) [%] | pest or weed control at 250 g/ha [1] [%] | pest or weed control at 250 g/ha [2] [%] | pest or weed control at 250 g/ha [3] [%] | pest or weed control at 125 g/ha [4] [%] | pest or weed control at 500 g/ha [5, 13] [%] | pest or weed control at 125 g/ha [6] [%] | pest or weed control at 500 g/ha [6] [%] | pest or weed control at 125 g/ha [7] [%] | pest or weed control at 125 g/ha [8] [%] | pest or weed control at 125 g/ha [9] [%] | pest or weed control at 500 g/ha [9] [%] | pest or weed control at 500 g/ha [10, 14] [%] | plant injury at 125 g/ha [11] [%] | Corn plant response rating (crop injury, 0 = no effect, 100 = complete kill) at 500 g/ha (corn (Zea mays); postemergence, approx. 10 d) [%] | pest or weed control at 125 g/ha (Kochia (Kochia scoparia)) [%] | pest or weed control at 500 g/ha (Kochia (Kochia scoparia)) [%] | pest or weed control at 125 g/ha [12] [%] | pest or weed control at 500 g/ha [12] [%] | other results |
| --- | --- | --- | --- | --- | --- | --- | --- | --- | --- | --- | --- | --- | --- | --- | --- | --- | --- | --- | --- | --- |
| O=C1NC[C@H](c2ccc3c(c2)CCC3)[C@H]1C(=O)Nc1cccc(F)c1F [Compound 1046] | 0 | 60 | 0 | 100 | 0 | 50 | 60 | 90 | 40 | 0 | 50 | 50 | 90 | 20 | 60 | 0 | 0 | 0 | 0 | pest or weed control at 125 g/ha ([5]; postemergence, visual injury on 0 to 100 scale (0 no effect, 100 complete control), approx. 10 d, read-out: Blackgrass plant response rating): 30%; pest or weed control at 125 g/ha ([10]; postemergence, visual injury on 0 to 100 scale (0 no effect, 100 complete control), approx. 10 d, read-out: Barnyardgrass plant response rating): 90%; plant injury at 125 g/ha (corn (Zea mays); 125 g ai/ha, postemergence, visual injury on 0 to 100 scale (0 no effect, 100 complete control), approx. 10 d, read-out: Corn plant response rating): 20% |
| O=C1NC[C@H](c2ccc3c(c2)OCO3)[C@H]1C(=O)Nc1ccc(F)c(F)c1F [Compound 1027] | 30 | 40 | 0 | 100 | 0 | 40 | 20 | 60 | 0 | 0 | 50 | 70 | 90 | 0 | 0 | 0 | 30 | 0 | 40 | pest or weed control at 500 g/ha ([4]; 500 g ai/ha, visual injury, 0 to 100 scale (0 no effect, 100 complete control), read-out: Plant response rating, Pigweed): 0%; pest or weed control at 125 g/ha ([5]; Postemergence, visual injury after approximately 10 d, 0 to 100 scale where 0 is no effect and 100 is complete control, read-out: Plant response rating, Blackgrass): 0%; pest or weed control at 500 g/ha ([7]; 500 g ai/ha, visual injury, 0 to 100 scale (0 no effect, 100 complete control), read-out: Plant response rating, Ryegrass, Italian): 30%; pest or weed control at 500 g/ha ([8]; 500 g ai/ha, visual injury, 0 to 100 scale (0 no effect, 100 complete control), read-out: Plant response rating, Ragweed): 0%; pest or weed control at 125 g/ha ([10]; Postemergence, visual injury after approximately 10 d, 0 to 100 scale where 0 is no effect and 100 is complete control, read-out: Plant response rating, Barnyardgrass): 70%; plant injury at 500 g/ha ([11]; 500 g ai/ha, visual injury, 0 to 100 scale (0 no effect, 100 complete control), read-out: Plant response rating, Wheat): 0%; Corn plant response rating (crop injury, 0 = no effect, 100 = complete kill) at 125 g/ha (corn (Zea mays); 125 g ai/ha, Postemergence, visual injury after approximately 10 d, 0 to 100 scale where 0 is no effect and 100 is complete control): 0% |
